Data as given in ChEMBL document CHEMBL5380791, “Modular Biomimetic Strategy Enabled Discovery of Simplified Pseudo-Natural Macrocyclic P-Glycoprotein Inhibitors Capable of Overcoming Multidrug Resistance” (J Med Chem, 2023).
Calls of active or inactive are those of the source. The calls are words filed in the database; no cut-off is given here.

Columns and labels:
KBv200 [1] = assay: Reversal of paclitaxel resistance in human KBv200 cells assessed as reduction in cell viability incubated for 72 hrs in presence of paclitaxel (reference value: 392.9+/-196.5 nM); assay type: functional, cell-based; details: KBv200, 72 h
KBv200 [2] = assay: Induction of apoptosis in human KBv200 cells assessed as increase in cleaved PARP level at 5 uM incubated for 24 hrs by Western blotting analysis; assay type: functional, cell-based
[3] = Toxicity in Balb/cA nude mouse xenografted with human KBv200 cells assessed as mortality at 75 mg/kg, ip qd administered for 13 days in presence of vinorelbine; assay type: organism-based; details: in vivo, 312 h, time 13 day
KBv200 [4] = assay: Antitumor activity against human KBv200 cells xenografted in Balb/cA nude mouse assessed as T/C ratio at 75 mg/kg, ip qd administered for 13 days; assay type: functional; details: time 13 day
KBv200 [5] = assay: Antitumor activity against human KBv200 cells xenografted in Balb/cA nude mouse assessed as mean tumor volume at 75 mg/kg, ip qd administered for 13 days in presence of vinorelbine; assay type: functional; details: time 13 day
[6] = Oral bioavailability in CD-1 mouse at 30 mg/kg; assay type: ADME, organism-based; details: in vivo
[7] = Toxicity in Balb/cA nude mouse xenografted with human KBv200 cells assessed as mortality at 75 mg/kg, ip qd administered for 13 days; assay type: organism-based; details: in vivo, 312 h, time 13 day
[8] = Cytotoxicity against human L02 cells assessed as reduction in cell viability incubated for 48 hrs by CCK-8 assay; assay type: toxicity, cell-based
[9] = Toxicity in Balb/cA nude mouse xenografted with human KBv200 cells assessed as changes in body weight at 75 mg/kg, ip qd administered for 13 days; assay type: organism-based; details: in vivo, 312 h, time 13 day
[10] = Half life in CD-1 mouse at 30 mg/kg, po; assay type: ADME, organism-based; details: in vivo
[11] = Cmax in CD-1 mouse at 30 mg/kg, po; assay type: ADME, organism-based; parameters: dose 30 mg/kg, route po; details: in vivo
[12] = Clearance in CD-1 mouse at 3 mg/kg, iv; assay type: ADME, organism-based; details: in vivo
KBv200 [13] = assay: Induction of apoptosis in human KBv200 cells assessed as increase in cleaved caspase 3 level at 5 uM incubated for 24 hrs by Western blotting analysis; assay type: functional, cell-based
[14] = AUCinf in CD-1 mouse at 3 mg/kg, iv; assay type: ADME, organism-based; parameters: dose 3 mg/kg, route iv; details: in vivo
KBv200 [15] = assay: Antitumor activity against human KBv200 cells xenografted in Balb/cA nude mouse assessed as mean tumor volume at 75 mg/kg, ip administered as single dose and measured on day 0; assay type: functional
[16] = AUClast in CD-1 mouse at 30 mg/kg, po; assay type: ADME, organism-based; parameters: dose 30 mg/kg, route po; details: in vivo
[17] = AUClast in CD-1 mouse at 3 mg/kg, iv; assay type: ADME, organism-based; parameters: dose 3 mg/kg, route iv; details: in vivo
KBv200 [18] = assay: Induction of apoptosis in human KBv200 cells assessed as increase in cleaved caspase 9 level at 5 uM incubated for 24 hrs by Western blotting analysis; assay type: functional, cell-based
KBv200 [19] = assay: Antitumor activity against human KBv200 cells xenografted in Balb/cA nude mouse assessed as T/C ratio at 75 mg/kg, ip qd administered for 13 days in presence of vinorelbine; assay type: functional; details: time 13 day
[20] = Tmax in CD-1 mouse at 30 mg/kg, po; assay type: ADME, organism-based; details: in vivo
K562 = assay: Reversal of vinorelbine resistance in human K562 cells assessed as reduction in cell viability incubated for 72 hrs in presence of vinorelbine (reference value: 5.9+/-0.2 nM); assay type: functional, cell-based; details: K562, 72 h
[21] = AUCinf in CD-1 mouse at 30 mg/kg, po; assay type: ADME, organism-based; parameters: dose 30 mg/kg, route po; details: in vivo
KBv200 [22] = assay: Induction of apoptosis in human KBv200 cells assessed as increase in cleaved caspase 9 level at 5 uM incubated for 24 hrs in presence of vinorelbine by Western blotting analysis; assay type: functional, cell-based
[23] = AUCinf in CD-1 mouse at 25 mg/kg, ip; assay type: ADME, organism-based; parameters: dose 25 mg/kg, route ip; details: in vivo
KBv200 [24] = assay: Antitumor activity against human KBv200 cells xenografted in Balb/cA nude mouse assessed as tumor growth inhibition at 75 mg/kg, ip qd administered for 13 days in presence of vinorelbine; assay type: functional; details: KBv200, 312 h, time 13 day
[25] = Cytotoxicity against human HEK293T cells assessed as reduction in cell viability incubated for 48 hrs by CCK-8 assay; assay type: toxicity, cell-based, HEK-293T
[26] = Tmax in CD-1 mouse at 25 mg/kg, ip; assay type: ADME, organism-based; details: in vivo
KBv200 [27] = assay: Antitumor activity against human KBv200 cells xenografted in Balb/cA nude mouse assessed as tumor growth inhibition at 75 mg/kg, ip qd administered for 13 days; assay type: functional; details: KBv200, 312 h, time 13 day
[28] = AUClast in CD-1 mouse at 25 mg/kg, ip; assay type: ADME, organism-based; parameters: dose 25 mg/kg, route ip; details: in vivo
KBv200 [29] = assay: Induction of apoptosis in human KBv200 cells assessed as increase in cleaved caspase 3 level at 5 uM incubated for 24 hrs in presence of vinorelbine by Western blotting analysis; assay type: functional, cell-based
KBv200 [30] = assay: Antitumor activity against human KBv200 cells xenografted in Balb/cA nude mouse assessed as mean tumor volume at 75 mg/kg, ip administered as single dose and measured on day 0 in presence of vinorelbine; assay type: functional
KBv200 [31] = assay: Induction of apoptosis in human KBv200 cells assessed as increase in cleaved PARP level at 5 uM incubated for 24 hrs in presence of vinorelbine by Western blotting analysis; assay type: functional, cell-based
KBv200 [32] = assay: Downregulation of P-gp mRNA expression level in human KBV200 cells by qRT-PCR analysis; assay type: functional, cell-based
[33] = Toxicity in Balb/cA nude mouse xenografted with human KBv200 cells assessed as changes in body weight at 75 mg/kg, ip qd administered for 13 days in presence of vinorelbine; assay type: organism-based; details: in vivo, 312 h, time 13 day
OVCAR-8 = assay: Reversal of vinorelbine resistance in human OVCAR-8 cells assessed as reduction in cell viability incubated for 72 hrs in presence of vinorelbine (reference value: 16.2+/-4.7 nM); assay type: functional, cell-based; details: OVCAR-8, 72 h
[34] = Cmax in CD-1 mouse at 25 mg/kg, ip; assay type: ADME, organism-based; parameters: dose 25 mg/kg, route ip; details: in vivo
[35] = Half life in CD-1 mouse at 25 mg/kg, ip; assay type: ADME, organism-based; details: in vivo
[36] = Bioavailability in CD-1 mouse at 25 mg/kg, ip; assay type: ADME, organism-based; details: in vivo
NCI/ADR-RES = assay: Reversal of vinorelbine resistance in human NCI/ADR-RES cells assessed as reduction in cell viability incubated for 72 hrs in presence of vinorelbine (reference value: 6125.7+/-3267.7 nM); assay type: functional, cell-based
K562/Adr = assay: Reversal of vinorelbine resistance in human K562/Adr cells assessed as reduction in cell viability incubated for 72 hrs in presence of vinorelbine (reference value: 7320.6+/-2115.2 nM); assay type: functional, cell-based
[37] = target: ATP-dependent translocase ABCB1 (Homo sapiens, UniProt P08183); assay: Inhibition of P-gp in human KBv200 cells assessed as induction of conformation change by measuring increase in UIC-2 binding level at 50 uM incubated for 10 mins by UIC-2 reactivity shift assay; assay type: cell-based; details: kbv200, 10 min
KBv200 [38] = assay: Reversal of adriamycin resistance in human KBv200 cells assessed as reduction in cell viability incubated for 72 hrs in presence of adriamycin (reference value: 1291.2+/-308.9 nM); assay type: functional, cell-based; details: KBv200, 72 h
KBv200 [39] = assay: Antitumor activity against human KBv200 cells xenografted in Balb/cA nude mouse assessed as mean tumor volume at 75 mg/kg, ip qd administered for 13 days; assay type: functional; details: time 13 day
KBv200 [40] = assay: Reversal fold, ratio of vinorelbine IC50 for cytotoxicity against human KBv200 cells over test compound IC50 for reversal of vinorelbine resistance in human KBv200 cells; assay type: functional
KBv200 [41] = assay: Reversal of vinorelbine resistance in human KBv200 cells assessed as reduction in cell viability incubated for 72 hrs in presence of vinorelbine (reference value: 224 to 228.30 nM); assay type: functional, cell-based; details: KBv200, 72 h, read-out: IC50
[42] = Half life in CD-1 mouse at 3 mg/kg, iv; assay type: ADME, organism-based; details: in vivo
KB = assay: Reversal of vinorelbine resistance in human KB cells assessed as reduction in cell viability incubated for 72 hrs in presence of vinorelbine (reference value: 7.4+/-2.2 nM); assay type: functional, cell-based

Chain of ATP-dependent translocase ABCB1 (P08183 whole entry): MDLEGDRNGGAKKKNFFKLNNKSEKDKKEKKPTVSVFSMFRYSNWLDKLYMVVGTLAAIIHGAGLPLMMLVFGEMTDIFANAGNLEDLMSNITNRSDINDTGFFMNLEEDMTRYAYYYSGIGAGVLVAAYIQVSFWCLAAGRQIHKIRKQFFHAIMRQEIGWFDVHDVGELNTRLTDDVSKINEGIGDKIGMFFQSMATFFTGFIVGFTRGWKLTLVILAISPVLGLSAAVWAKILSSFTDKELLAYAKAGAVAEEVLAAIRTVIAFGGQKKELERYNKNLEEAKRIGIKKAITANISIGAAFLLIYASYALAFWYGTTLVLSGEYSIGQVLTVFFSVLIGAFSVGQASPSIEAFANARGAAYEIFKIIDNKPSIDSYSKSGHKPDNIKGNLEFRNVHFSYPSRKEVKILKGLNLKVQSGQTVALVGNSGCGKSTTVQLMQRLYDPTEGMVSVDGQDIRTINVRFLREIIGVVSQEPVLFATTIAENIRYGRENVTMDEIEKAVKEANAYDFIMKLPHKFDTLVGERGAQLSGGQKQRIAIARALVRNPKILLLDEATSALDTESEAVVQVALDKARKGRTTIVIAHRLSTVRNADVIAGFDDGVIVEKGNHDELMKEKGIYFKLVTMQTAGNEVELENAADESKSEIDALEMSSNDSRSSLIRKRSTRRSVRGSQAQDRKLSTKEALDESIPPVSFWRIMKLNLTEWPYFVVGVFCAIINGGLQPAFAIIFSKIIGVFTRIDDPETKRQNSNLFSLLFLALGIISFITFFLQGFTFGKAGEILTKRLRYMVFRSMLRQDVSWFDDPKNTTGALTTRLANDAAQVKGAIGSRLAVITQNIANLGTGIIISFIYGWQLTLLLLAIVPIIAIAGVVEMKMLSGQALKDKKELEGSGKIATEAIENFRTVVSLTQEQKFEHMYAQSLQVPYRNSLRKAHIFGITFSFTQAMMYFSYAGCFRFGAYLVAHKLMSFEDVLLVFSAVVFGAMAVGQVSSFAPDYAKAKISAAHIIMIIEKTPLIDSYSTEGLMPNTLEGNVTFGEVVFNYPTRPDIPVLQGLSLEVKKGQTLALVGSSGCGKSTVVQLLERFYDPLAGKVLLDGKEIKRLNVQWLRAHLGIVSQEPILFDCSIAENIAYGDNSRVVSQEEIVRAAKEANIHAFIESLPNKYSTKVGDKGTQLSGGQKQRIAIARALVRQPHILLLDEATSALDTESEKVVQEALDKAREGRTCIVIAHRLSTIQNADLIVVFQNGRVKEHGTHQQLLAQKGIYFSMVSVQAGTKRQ

Q: Which IC50 (KBv200 [1]) does the source give for CC(C)[C@H]1NC(=O)/C(c2ccccc2)=C\C=C(\c2ccccc2)CNC(=O)CCCCCCCCCCCNC1=O here?
A: 8 nM

Q: And the Activity (KBv200 [2])?
A: inactive

Q: And the Activity [3]?
A: Non-Toxic

Q: What about the T/C (KBv200 [4]) of the same compound?
A: 113%

Q: And the Activity (KBv200 [5])?
A: 1132.6 mm3

Q: And the bioavailability [6]?
A: 24.7%

Q: What about the Activity [7] of the same compound?
A: Non-Toxic

Q: And the IC50 at 48 h [8]?
A: > 100000 nM

Q: What about the Activity [9] of the same compound?
A: Non-Toxic

Q: What about the half-life [10] of the same compound?
A: 1.24 h

Q: And the Cmax [11]?
A: 1380 ng/mL

Q: What about the clearance [12] of the same compound?
A: 58.2 mL/min/kg

Q: And the Activity (KBv200 [13])?
A: inactive

Q: And the AUC(0-inf) [14]?
A: 888 ng·h/mL

Q: What about the Activity (KBv200 [15]) of the same compound?
A: 121 mm3

Q: And the AUC(0-t) [16]?
A: 2190 ng·h/mL

Q: What about the AUC(0-t) [17] of the same compound?
A: 887 ng·h/mL

Q: And the Activity (KBv200 [18])?
A: inactive

Q: What about the T/C (KBv200 [19]) of the same compound?
A: 52%

Q: And the Tmax [20]?
A: 0.25 h

Q: And the IC50 (K562)?
A: 1.4 nM

Q: And the AUC(0-inf) [21]?
A: 2200 ng·h/mL

Q: And the Activity (KBv200 [22])?
A: Active

Q: And the AUC(0-inf) [23]?
A: 5100 ng·h/mL

Q: And the inhibition in vivo at 75 mg/kg (KBv200 [24])?
A: 48%

Q: And the IC50 at 48 h [25]?
A: > 100000 nM

Q: And the Tmax [26]?
A: 7.2 min

Q: And the inhibition in vivo at 75 mg/kg (KBv200 [27])?
A: -13%

Q: What about the AUC(0-t) [28] of the same compound?
A: 4400 ng·h/mL

Q: And the Activity (KBv200 [29])?
A: Active

Q: What about the Activity (KBv200 [30]) of the same compound?
A: 121.5 mm3

Q: And the Activity (KBv200 [31])?
A: Active

Q: What about the Activity (KBv200 [32]) of the same compound?
A: inactive

Q: What about the Activity [33] of the same compound?
A: Non-Toxic

Q: What about the IC50 (OVCAR-8) of the same compound?
A: 6.8 nM

Q: And the Cmax [34]?
A: 2390 ng/mL

Q: And the half-life [35]?
A: 11.2 h

Q: And the bioavailability [36]?
A: 59.5%

Q: And the IC50 (NCI/ADR-RES)?
A: 619 nM

Q: And the IC50 (K562/Adr)?
A: 1210 nM

Q: What about the Activity [37] of the same compound?
A: Active

Q: What about the IC50 (KBv200 [38]) of the same compound?
A: 107 nM

Q: And the Activity (KBv200 [39])?
A: 2318.6 mm3

Q: And the “Ratio IC50” value (KBv200 [40])?
A: 386

Q: And the IC50 (KBv200 [41])?
A: 0.74 nM

Q: And the half-life [42]?
A: 1.23 h

Q: And the IC50 (KB)?
A: 2.2 nM
